Laboratory results: patent publication US7223781B2 (Beiersdorf AG, priority 2001, dated 2007)
Where two headings read alike, the source gives them in different places.

Target: T1, COX-1 (Sus scrofa, UniProt A0A287ANF9)
T1 construct: A platelet suspension obtained from pig's blood is preincubated with the test substance; endogenous in cells; host or cells: platelets from pig's blood
Test: In-vitro test for COX-1 inhibition: fluorimetric quantification of malonaldehyde (MDA) in A23187-activated pig platelet suspension
Assay type: cell-based
Description: In-vitro Test Procedure for the Determination of COX-1 Inhibition
The inhibition of the cyclooxygenase pathway is carried out by fluorimetric quantification of malonaldehyde (MA). This condenses in the acidic medium with twice the molar amount of thiobarbituric acid to give a red pigment dye, which has a fluorescence at λExcitation: 533 nm, λEmission: 550 nm.
A platelet suspension obtained from pig's blood is preincubated with the test substance for 10 min at 37° C. The concentration of the suspension should be 8×10^8 cells/ml. The arachidonic acid cascade is then activated by addition of the antibiotic calcium ionophore A23187 ([…]). After a further 10 min at 37° C., the reaction is stopped using a trichloroacetic acid solution. The samples are centrifuged and the supernatant is incubated with thiobarbituric acid for 30 min at 70° C. After cooling (30 min at room temperature), the samples are measured fluorimetrically at 533/550 nm and the IC50 values of the test compounds are determined therefrom by means of a calibration curve.

[1] = Table 8, arylsulfonamides, pig platelets, read-out: MDA IC50
[2] = Table 10, alkylsulfonamides, pig platelets, read-out: MDA pIC50 (converted)
[3] = Table 7, arylamides, pig platelets, read-out: MDA IC50
[4] = Table 7, arylamides, pig platelets, read-out: MDA pIC50 (converted)
[5] = Table 9, alkylamides, pig platelets, read-out: MDA pIC50 (converted)
[6] = Table 9, alkylamides, pig platelets, read-out: MDA IC50
[7] = tables 1 to 17, read-out: IC50 values (inhibition of cyclooxygenase-1)
[8] = Table 5, heteroarylmethyl sulfides, pig platelets, read-out: MDA pIC50 (converted)
[9] = Table 11, heteroaryl- and naphthylamides, pig platelets, read-out: MDA pIC50 (converted)

T1 sequence (A0A287ANF9 25-600): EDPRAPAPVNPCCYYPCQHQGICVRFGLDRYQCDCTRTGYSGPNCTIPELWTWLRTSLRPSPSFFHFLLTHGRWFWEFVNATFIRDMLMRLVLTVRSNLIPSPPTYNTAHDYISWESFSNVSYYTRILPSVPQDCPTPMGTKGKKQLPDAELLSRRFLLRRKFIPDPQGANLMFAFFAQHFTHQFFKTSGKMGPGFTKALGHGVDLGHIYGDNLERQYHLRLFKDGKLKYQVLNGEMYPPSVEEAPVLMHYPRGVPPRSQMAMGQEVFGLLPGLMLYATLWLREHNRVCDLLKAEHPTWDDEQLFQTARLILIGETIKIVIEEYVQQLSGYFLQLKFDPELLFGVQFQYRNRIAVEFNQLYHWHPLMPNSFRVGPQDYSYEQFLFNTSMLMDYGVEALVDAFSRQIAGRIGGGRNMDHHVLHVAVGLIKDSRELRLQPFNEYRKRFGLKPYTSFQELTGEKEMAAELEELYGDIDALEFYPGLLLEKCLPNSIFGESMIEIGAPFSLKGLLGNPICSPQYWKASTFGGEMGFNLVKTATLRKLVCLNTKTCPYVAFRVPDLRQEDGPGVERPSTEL

COc1ccc(-c2nc(SCCNC(=O)c3ccccc3)n(C)c2-c2ccc(OC)cc2)cc1 [Compound T30, N^1-{2-[4,5-Bis(4-methoxyphenyl)-1-methyl-1H-imidazol-2-ylsufanyl]-ethyl}benzamide]
IC50 (Table 17, methyl derivatives, pig platelets, read-out: MDA pIC50 (converted)): 41.7 nM

COc1ccc(-c2nc(SCCNS(=O)(=O)c3ccc(C(C)(C)C)cc3)[nH]c2-c2ccc(OC)cc2)cc1 [Compound T26, N^1-{2-[4,5-Bis(4-methoxyphenyl)-1H-imidazol-2-ylsufanyl]ethyl}-4-(tert-butyl)benzenesulfonamide]
IC50 [1]: 490 nM

COc1ccc(-c2nc(SCCNS(=O)(=O)Cc3ccccc3)[nH]c2-c2ccc(OC)cc2)cc1 [Compound T66, N^1-{2-[4,5-Bis(4-methoxyphenyl)-1H-imidazol-2-ylsulfanyl]ethyl}-phenylmethanesulfonamide]
IC50 [2]: 100 nM

COc1ccc(-c2nc(SCCNC(=O)c3ccccc3Cl)[nH]c2-c2ccc(OC)cc2)cc1 [Compound T34, N^1-{2-[4,5-Bis(4-methoxyphenyl)-1H-imidazol-2-ylsufanyl]ethyl}-2-chlorobenzamide]
IC50 [3]: 62 nM

COc1ccc(-c2nc(SCCNC(=O)c3ccc([N+](=O)[O-])cc3)[nH]c2-c2ccc(OC)cc2)cc1 [Compound T40, N^1-{2-[4,5-Bis(4-methoxyphenyl)-1H-imidazol-2-ylsufanyl]ethyl}-4-nitro-benzamide]
IC50 [3]: 81 nM

COc1ccc(-c2nc(SCCNS(=O)(=O)c3ccc(C)cc3)[nH]c2-c2ccc(OC)cc2)cc1 [Compound T24, N^1-{2-[4,5-Bis(4-methoxyphenyl)-1H-imidazol-2-ylsufanyl]ethyl}-4-methylbenzenesulfonamide]
IC50 [1]: 48 nM

O=C(NCCSc1nc(-c2ccccc2)c(-c2ccccc2)[nH]1)c1ccccc1 [Compound T94]
IC50 [4]: 2090 nM

COc1ccc(-c2nc(SCCNC(=O)c3ccc(C#N)cc3)[nH]c2-c2ccc(OC)cc2)cc1 [Compound T39, N^1-{2-[4,5-Bis(4-methoxyphenyl)-1H-imidazol-2ylsulfanyl]ethyl}-4-cyanobenzamide]
IC50 [4]: 141 nM

COc1ccc(-c2nc(SCCNS(=O)(=O)c3ccc4ccccc4c3)[nH]c2-c2ccc(OC)cc2)cc1 [Compound T68, N^1-{2-[4,5-Bis(4-methoxyphenyl)-1H-imidazol-2-ylsulfanyl]ethyl}-naphthalene-2-sulfonamide]
IC50 (Table 12, naphthylsulfonamides, pig platelets, read-out: MDA pIC50 (converted)): 129 nM

COc1ccc(-c2[nH]c(SCCNC(=O)c3ccccc3)nc2-c2ccc(Cl)cc2)cc1 [Compound T110, N^1-{2-[4-(4-Chlorophenyl)-5-(4-methoxyphenv)-1H-imidazol-2-yl-sufanyl]ethyl}benzamide]
IC50 [4]: 3310 nM

COc1ccc(-c2nc(SCCNC(=O)C(c3ccccc3)c3ccccc3)[nH]c2-c2ccc(OC)cc2)cc1 [Compound T62, N^1-{2-[4,5-Bis(4-methoxyphenyl)-1H-imidazol-2-ylsulfanyl]ethyl}-2,2-diphenylacetamide]
IC50 [5]: 129 nM

COc1ccc(-c2nc(SCCNC(=O)C(C)C)[nH]c2-c2ccc(OC)cc2)cc1 [Compound T51, N^1-{2-[4,5-Bis(4-methoxyphenyl)-1H-imidazol-2-ylsufanyl]ethyl}-2-methylpropanamide]
IC50 [6]: 8.8 nM
IC50 [7]: ~1 nM

COc1ccc(-c2nc(SCCNC(=O)c3ccc(F)cc3)[nH]c2-c2ccc(OC)cc2)cc1 [Compound T38, N^1-{2-[4,5-Bis(4-methoxyphenyl)-1H-imidazol-2-ylsufanyl]ethyl}-4-fluorobenzamide]
IC50 [4]: 251 nM

CN(C)C(=O)CSc1nc(-c2ccc(Cl)cc2)c(-c2ccc(Cl)cc2)[nH]1 [Compound T87, N^1N^1-Dimethyl-2-[4,5-bis(4-chlorophenyl)-1H-imidazol-2-ylsulfanyl]-acetamide]
IC50 (Table 15, N,N-acetamides, pig platelets, read-out: MDA pIC50 (converted)): 1510 nM

COc1ccc(-c2nc(SCCNS(C)(=O)=O)[nH]c2-c2ccc(OC)cc2)cc1 [Compound T63, N^1-{2-[4,5-Bis(4-methoxyphenyl)-1H-imidazol-2-ylsulfanyl]ethyl}-methanesulfonamide]
IC50 (Table 10, alkylsulfonamides, pig platelets, read-out: MDA IC50): 76 nM

Clc1ccc(-c2nc(SCc3ccccn3)[nH]c2-c2ccc(Cl)cc2)cc1 [Compound T83, 2-[4,5-Bis(4-chlorophenyl)-1H-imidazol-2-ylsulfanylmethyl]pyridine]
IC50 [8]: 331 nM

COc1ccc(-c2nc(SCCNC(=O)c3ccc(Cl)cc3Cl)[nH]c2-c2ccc(OC)cc2)cc1 [Compound T35, N^1-{2-[4,5-Bis(4-methoxyphenyl)-1H-imidazol-2-ylsufanyl]ethyl}-2,4-dichlorobenzamide]
IC50 [4]: 151 nM

COc1ccc(-c2nc(SCc3cccnc3)[nH]c2-c2ccc(OC)cc2)cc1 [Compound T70, 3-[4,5-Bis(4-methoxyphenyl)-1H-imidazol-2-ylsulfanylmethyl]pyridine]
IC50 [8]: 3.02 nM
IC50 [7]: ~1 nM

COc1ccc(-c2nc(SCc3ccncc3)[nH]c2-c2ccc(OC)cc2)cc1 [Compound T71, 4-[4,5-Bis(4-methoxyphenyl)-1H-imidazol-2-ylsulfanylmethyl]pyridine]
IC50 [8]: 3.02 nM
IC50 [7]: ~1 nM

COc1ccc(-c2nc(SC(=O)N(C(C)C)C(C)C)[nH]c2-c2ccc(OC)cc2)cc1 [Compound T3, [4,5-Bis(4-methoxyphenyl)-1H-imidazol-2-yl]-N,N-diisopropylcarbamic acid thioester]
IC50 (Table 1, carbamic acid thioesters, pig platelets, read-out: MDA pIC50 (converted)): 12 nM

COc1ccc(-c2nc(SCc3ccncc3)n(CC(=O)O)c2-c2ccc(OC)cc2)cc1 [Compound T77, 2-[4,5-Bis(4-methoxyphenyl)-2-(4-pyridylmethylsulfanyl)-1H-imidazol-1-yl]-acetic acid]
IC50 (Table 6, N1-acetic acid derivatives, pig platelets, read-out: MDA IC50): 720 nM

COc1ccc(-c2nc(SCCNS(=O)(=O)c3ccc(F)cc3)[nH]c2-c2ccc(OC)cc2)cc1 [Compound T20, N^1-{2-[4,5-Bis(4-methoxyphenyl)-1H-imidazol-2-ylsufanyl]ethyl}-4-fluorobenzenesulfonamide]
IC50 [1]: 60 nM

COc1ccc(-c2nc(SCCNS(=O)(=O)C(C)C)[nH]c2-c2ccc(OC)cc2)cc1 [Compound T65, N^1-{2-[4,5-Bis(4-methoxyphenyl)-1H-imidazol-2-ylsulfanyl]ethyl}-propane-2-sulfonamide]
IC50 [2]: 10 nM

COc1ccc(-c2nc(SCCNC(=O)c3ccc4ccccc4c3)[nH]c2-c2ccc(OC)cc2)cc1 [Compound T56, N^1-{2-[4,5-Bis(4-methoxyphenyl)-1H-imidazol-2-ylsulfanyl]ethyl}-2-naphthamide]
IC50 [9]: 39.8 nM

COc1ccc(-c2nc(SCCNC(=O)C=Cc3ccccc3)[nH]c2-c2ccc(OC)cc2)cc1 [Compound T61, N^1-{2-[4,5-Bis(4-methoxyphenyl)-1H-imidazol-2-ylsulfanyl]ethyl}-3-phenylprop-2-enamide]
IC50 [5]: 182 nM

COc1ccc(-c2nc(SCCNC(=O)c3ccc(Cl)cc3)[nH]c2-c2ccc(OC)cc2)cc1 [Compound T32, N^1-{2-[4,5-Bis(4-methoxyphenyl)-1H-imidazol-2-ylsufanyl]ethyl}-4-chlorobenzamide]
IC50 [4]: 251 nM

COc1ccc(-c2nc(SCC(=O)Nc3ccc(Cl)cc3)[nH]c2-c2ccc(OC)cc2)cc1 [Compound T10, N^1-(4-Chlorophenyl)-2-[4,5-bis(4-methoxyphenyl)-1H-imidazol-2-yl-sufanyl]acetamide]
IC50 (Table 2, sulfanylacetamides, pig platelets, read-out: MDA pIC50 (converted)): 209 nM

COc1ccc(-c2nc(SCCNC(=O)C(C)(C)C)[nH]c2-c2ccc(OC)cc2)cc1 [Compound T52, N^1-{2-[4,5-Bis(4-methoxyphenyl)-1H-imidazol-2-ylsulfanyl]ethyl}-2,2-dimethylpropanamide]
IC50 [5]: 417 nM

COc1ccc(-c2nc(SCCNC(=O)c3cc(OC)c(OC)c(OC)c3)[nH]c2-c2ccc(OC)cc2)cc1 [Compound T46, N^1-{2-[4,5-Bis(4-methoxyphenyl)-1H-imidazol-2-ylsufanyl]ethyl}-3,4,5-trimethoxybenzamide]
IC50 [3]: 640 nM
IC50 [4]: 603 nM

COc1ccc(-c2nc(SCCNC(=O)c3cccs3)[nH]c2-c2ccc(OC)cc2)cc1 [Compound T54, N^1-{2-[4,5-Bis(4-methoxyphenyl)-1H-imidazol-2-ylsulfanyl]ethyl}thiophene-2-carboxamide]
IC50 [9]: 100 nM

COc1ccc(-c2nc(SCCNC(=O)CCc3ccccc3)[nH]c2-c2ccc(OC)cc2)cc1 [Compound T60, N^1-{2-[4,5-Bis(4-methoxyphenyl)-1H-imidazol-2-ylsulfanyl]ethyl}-3-phenylpropanamide]
IC50 [6]: 150 nM
IC50 [5]: 151 nM

COc1ccc(-c2nc(SCCNC(=O)c3cc(C(F)(F)F)cc(C(F)(F)F)c3)[nH]c2-c2ccc(OC)cc2)cc1 [Compound T44, N^1-{2-[4,5-Bis(4-methoxyphenyl)-1H-imidazol-2-ylsufanyl]ethyl}-3,5-bis-(trifluoromethyl)benzamide]
IC50 [3]: 520 nM

COc1ccc(-c2nc(SCC(=O)c3ccc(Cl)cc3)[nH]c2-c2ccc(OC)cc2)cc1 [Compound T12]
IC50 (Table 4, aryl ketones, pig platelets, read-out: MDA IC50): 46 nM
